Measured values as given in the supplement of paper PMC10307832.

Experiments:
Assay in all cases: relative viability (nuclei count vs DMSO), 5 days (fraction); higher = more cells survive
[1] = system: CAL-12T
Procedure, shortened: (§1)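 Medians of duplicate plates are given as relative viability. That measure is the nuclei count in treated wells divided by the count in vehicle wells. Counts were taken on 4× images of lung cancer cell lines in 1536-well plates, 5 days after pin-tool dosing the day after seeding with one drug alone or a fixed anchor-drug dose plus five library-drug doses (not always all listed) in √10 steps.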

[2] = system: NCI-H460
Procedure, shortened: as §1

[3] = system: NCI-H1563
Procedure, shortened: as §1

[4] = system: NCI-H1651
Procedure, shortened: as §1

[5] = system: HCC-44
Procedure, shortened: as §1

[6] = system: NCI-H520
Procedure, shortened: as §1

[7] = system: HCC-15
Procedure, shortened: as §1

[8] = system: EKVX
Procedure, shortened: as §1

[9] = system: NCI-H838
Procedure, shortened: as §1

[10] = system: COR-L 105
Procedure, shortened: as §1

[11] = system: NCI-H322M
Procedure, shortened: as §1

[12] = system: LU99A
Procedure, shortened: as §1

[13] = system: 201T
Procedure, shortened: as §1

[14] = system: NCI-H2023
Procedure, shortened: as §1

[15] = system: NCI-H727
Procedure, shortened: as §1

[16] = system: PC-3 [JPC-3]
Procedure, shortened: as §1

[17] = system: EMC-BAC-2
Procedure, shortened: as §1

[18] = system: ABC-1
Procedure, shortened: as §1

[19] = system: BEN
Procedure, shortened: as §1

`Cc1csc(=NC2CCCCC2)n1/N=C/c1ccc(O)c(O)c1O` [MIM1] + CC(C)C[C@H](NC(=O)[C@H](Cc1ccccc1)NC(=O)c1cnccn1)B(O)O [Bortezomib] (partner 0.002 µM) was tested, and the relative viability ([1]; first compound 0.2 µM) was 1.01, the relative viability ([1]; first compound 2 µM) was 1.04 and the relative viability ([1]; first compound 6.325 µM) was 0.867. For the same compound, the relative viability ([1]; first compound 20 µM) was 0.429, the relative viability ([2]; first compound 0.2 µM) was 1.12 and the relative viability ([2]; first compound 0.6325 µM) was 1.26. It also gave a relative viability ([2]; first compound 2 µM) of 0.604, a relative viability ([2]; first compound 6.325 µM) of 0.467 and a relative viability ([2]; first compound 20 µM) of 0.0328. The relative viability ([3]; first compound 0.2 µM) was 0.894, the relative viability ([3]; first compound 0.6325 µM) was 0.96 and the relative viability ([3]; first compound 2 µM) was 0.744. The relative viability ([3]; first compound 6.325 µM) was 0.563, the relative viability ([3]; first compound 20 µM) was 0.465 and the relative viability ([4]; first compound 0.2 µM) was 0.92. It also gave a relative viability ([4]; first compound 0.6325 µM) of 0.823, a relative viability ([4]; first compound 2 µM) of 0.875 and a relative viability ([4]; first compound 6.325 µM) of 0.887. The relative viability ([4]; first compound 20 µM) was 0.685, the relative viability ([5]; first compound 0.2 µM) was 0.879 and the relative viability ([5]; first compound 0.6325 µM) was 0.816. The relative viability ([5]; first compound 2 µM) was 0.84, the relative viability ([5]; first compound 6.325 µM) was 0.446 and the relative viability ([5]; first compound 20 µM) was 0.141. The relative viability ([6]; first compound 0.2 µM) was 0.721, the relative viability ([6]; first compound 0.6325 µM) was 0.353 and the relative viability ([6]; first compound 2 µM) was 0.684. For the same compound, the relative viability ([6]; first compound 6.325 µM) was 0.401, the relative viability ([6]; first compound 20 µM) was 0.184 and the relative viability ([7]; first compound 0.2 µM) was 1.05. The relative viability ([7]; first compound 0.6325 µM) was 0.911, the relative viability ([7]; first compound 2 µM) was 1.06 and the relative viability ([7]; first compound 6.325 µM) was 0.36. For the same compound, the relative viability ([7]; first compound 20 µM) was 0.267, the relative viability ([8]; first compound 0.2 µM) was 1.03 and the relative viability ([8]; first compound 0.6325 µM) was 1.16. The relative viability ([8]; first compound 2 µM) was 0.991, the relative viability ([8]; first compound 6.325 µM) was 0.601 and the relative viability ([8]; first compound 20 µM) was 0.33. For the same compound, the relative viability ([9]; first compound 0.2 µM) was 0.869, the relative viability ([9]; first compound 0.6325 µM) was 0.808 and the relative viability ([9]; first compound 2 µM) was 0.78. For the same compound, the relative viability ([9]; first compound 6.325 µM) was 0.53, the relative viability ([9]; first compound 20 µM) was 0.136 and the relative viability ([10]; first compound 0.2 µM) was 0.789. For the same compound, the relative viability ([10]; first compound 0.6325 µM) was 0.82, the relative viability ([10]; first compound 2 µM) was 0.719 and the relative viability ([10]; first compound 6.325 µM) was 0.54. The relative viability ([10]; first compound 20 µM) was 0.278, the relative viability ([11]; first compound 0.2 µM) was 1.21 and the relative viability ([11]; first compound 0.6325 µM) was 1.2. It also gave a relative viability ([11]; first compound 2 µM) of 1.35, a relative viability ([11]; first compound 6.325 µM) of 1.17 and a relative viability ([11]; first compound 20 µM) of 1.08. For the same compound, the relative viability ([12]; first compound 0.2 µM) was 1.08, the relative viability ([12]; first compound 0.6325 µM) was 1.08 and the relative viability ([12]; first compound 2 µM) was 1.1. The relative viability ([12]; first compound 6.325 µM) was 0.987, the relative viability ([12]; first compound 20 µM) was 0.341 and the relative viability ([13]; first compound 0.2 µM) was 1.09. The relative viability ([13]; first compound 0.6325 µM) was 1.08, the relative viability ([13]; first compound 2 µM) was 1.08 and the relative viability ([13]; first compound 6.325 µM) was 0.779. For the same compound, the relative viability ([13]; first compound 20 µM) was 0.82, the relative viability ([14]; first compound 0.2 µM) was 1.11 and the relative viability ([14]; first compound 0.6325 µM) was 0.916. For the same compound, the relative viability ([14]; first compound 2 µM) was 0.765, the relative viability ([14]; first compound 6.325 µM) was 0.35 and the relative viability ([14]; first compound 20 µM) was 0.0682. The relative viability ([15]; first compound 0.2 µM) was 0.671, the relative viability ([15]; first compound 0.6325 µM) was 0.785 and the relative viability ([15]; first compound 2 µM) was 0.705. For the same compound, the relative viability ([15]; first compound 6.325 µM) was 0.602, the relative viability ([15]; first compound 20 µM) was 0.286 and the relative viability ([16]; first compound 0.2 µM) was 0.862. For the same compound, the relative viability ([16]; first compound 0.6325 µM) was 0.7, the relative viability ([16]; first compound 2 µM) was 0.77 and the relative viability ([16]; first compound 6.325 µM) was 0.703. The relative viability ([16]; first compound 20 µM) was 0.496, the relative viability ([17]; first compound 0.2 µM) was 1.08 and the relative viability ([17]; first compound 0.6325 µM) was 0.822. The relative viability ([17]; first compound 2 µM) was 1.08, the relative viability ([17]; first compound 6.325 µM) was 0.996 and the relative viability ([17]; first compound 20 µM) was 0.259. It also gave a relative viability ([18]; first compound 0.2 µM) of 0.33, a relative viability ([18]; first compound 0.6325 µM) of 0.299 and a relative viability ([18]; first compound 2 µM) of 0.298. For the same compound, the relative viability ([18]; first compound 6.325 µM) was 0.309, the relative viability ([18]; first compound 20 µM) was 0.231 and the relative viability ([19]; first compound 0.2 µM) was 0.719. The relative viability ([19]; first compound 0.6325 µM) was 1.01, the relative viability ([19]; first compound 2 µM) was 0.929 and the relative viability ([19]; first compound 6.325 µM) was 0.735. For the same compound, the relative viability ([19]; first compound 20 µM) was 0.183.
With `CN1CCN(CCOc2cc(OC3CCOCC3)c3c(Nc4c(Cl)ccc5c4OCO5)ncnc3c2)CC1` [Saracatinib] + CC(C)C[C@H](NC(=O)[C@H](Cc1ccccc1)NC(=O)c1cnccn1)B(O)O [Bortezomib] (partner 0.002 µM) the relative viability ([1]; first compound 0.02 µM) was 0.944, the relative viability ([1]; first compound 0.2 µM) was 0.949 and the relative viability ([1]; first compound 0.6325 µM) was 1.24. The relative viability ([1]; first compound 2 µM) was 0.639, the relative viability ([2]; first compound 0.02 µM) was 1.05 and the relative viability ([2]; first compound 0.2 µM) was 0.51. For the same compound, the relative viability ([2]; first compound 0.6325 µM) was 1.12, the relative viability ([2]; first compound 2 µM) was 1.03 and the relative viability ([3]; first compound 0.02 µM) was 0.857. It also gave a relative viability ([3]; first compound 0.2 µM) of 0.713, a relative viability ([3]; first compound 0.6325 µM) of 0.707 and a relative viability ([3]; first compound 2 µM) of 0.712. It also gave a relative viability ([4]; first compound 0.02 µM) of 0.962, a relative viability ([4]; first compound 0.2 µM) of 0.775 and a relative viability ([4]; first compound 0.6325 µM) of 1. For the same compound, the relative viability ([4]; first compound 2 µM) was 0.844, the relative viability ([5]; first compound 0.02 µM) was 0.917 and the relative viability ([5]; first compound 0.2 µM) was 0.78. It also gave a relative viability ([5]; first compound 0.6325 µM) of 0.93, a relative viability ([5]; first compound 2 µM) of 1.02 and a relative viability ([6]; first compound 0.02 µM) of 0.663. It also gave a relative viability ([6]; first compound 0.2 µM) of 0.431, a relative viability ([6]; first compound 0.6325 µM) of 0.289 and a relative viability ([6]; first compound 2 µM) of 0.174. It also gave a relative viability ([7]; first compound 0.02 µM) of 0.969, a relative viability ([7]; first compound 0.2 µM) of 0.986 and a relative viability ([7]; first compound 0.6325 µM) of 1.04. For the same compound, the relative viability ([7]; first compound 2 µM) was 0.918, the relative viability ([8]; first compound 0.02 µM) was 0.961 and the relative viability ([8]; first compound 0.2 µM) was 0.861. For the same compound, the relative viability ([8]; first compound 0.6325 µM) was 1.16, the relative viability ([8]; first compound 2 µM) was 0.347 and the relative viability ([9]; first compound 0.02 µM) was 0.78. It also gave a relative viability ([9]; first compound 0.2 µM) of 0.702, a relative viability ([9]; first compound 0.6325 µM) of 0.482 and a relative viability ([9]; first compound 2 µM) of 0.431. For the same compound, the relative viability ([10]; first compound 0.02 µM) was 1.11, the relative viability ([10]; first compound 0.2 µM) was 0.699 and the relative viability ([10]; first compound 0.6325 µM) was 0.707. The relative viability ([10]; first compound 2 µM) was 0.432, the relative viability ([11]; first compound 0.02 µM) was 1.23 and the relative viability ([11]; first compound 0.2 µM) was 1.14. For the same compound, the relative viability ([11]; first compound 0.6325 µM) was 1.23, the relative viability ([11]; first compound 2 µM) was 0.988 and the relative viability ([12]; first compound 0.02 µM) was 1.1. For the same compound, the relative viability ([12]; first compound 0.2 µM) was 1, the relative viability ([12]; first compound 0.6325 µM) was 1.13 and the relative viability ([12]; first compound 2 µM) was 0.942. It also gave a relative viability ([13]; first compound 0.02 µM) of 1.07, a relative viability ([13]; first compound 0.2 µM) of 1 and a relative viability ([13]; first compound 0.6325 µM) of 1.04. It also gave a relative viability ([13]; first compound 2 µM) of 0.848, a relative viability ([14]; first compound 0.02 µM) of 1.1 and a relative viability ([14]; first compound 0.2 µM) of 0.902. The relative viability ([14]; first compound 0.6325 µM) was 1.05, the relative viability ([14]; first compound 2 µM) was 0.906 and the relative viability ([15]; first compound 0.02 µM) was 0.923. It also gave a relative viability ([15]; first compound 0.2 µM) of 0.535, a relative viability ([15]; first compound 0.6325 µM) of 1.09 and a relative viability ([15]; first compound 2 µM) of 0.506. For the same compound, the relative viability ([16]; first compound 0.02 µM) was 0.905, the relative viability ([16]; first compound 0.2 µM) was 0.721 and the relative viability ([16]; first compound 0.6325 µM) was 0.778. It also gave a relative viability ([16]; first compound 2 µM) of 0.486, a relative viability ([17]; first compound 0.02 µM) of 1.02 and a relative viability ([17]; first compound 0.2 µM) of 1. For the same compound, the relative viability ([17]; first compound 0.6325 µM) was 1.19, the relative viability ([17]; first compound 2 µM) was 1.03 and the relative viability ([18]; first compound 0.02 µM) was 0.275. For the same compound, the relative viability ([18]; first compound 0.2 µM) was 0.282, the relative viability ([18]; first compound 0.6325 µM) was 0.312 and the relative viability ([18]; first compound 2 µM) was 0.317. For the same compound, the relative viability ([19]; first compound 0.02 µM) was 0.928, the relative viability ([19]; first compound 0.2 µM) was 0.695 and the relative viability ([19]; first compound 0.6325 µM) was 0.889. For the same compound, the relative viability ([19]; first compound 2 µM) was 0.573.
